Source: patent US20130296425A1, “PROPHYLACTIC OR THERAPEUTIC AGENT FOR A PERIPHERAL NERVE DISORDER INDUCED BY ANTI-CANCER AGENTS” (NAGOYA INDUSTRIAL SCIENCE RESEARCH INSTITUTE, priority 2011, published 2013)

Assays:
[1] = system: paclitaxel-induced peripheral nerve disorder rats; assay: Single intraperitoneal administration, hyperalgesia induced by paclitaxel (von Frey test); format: in vivo; conditions: Rattus norvegicus, ip, single i.p. dose 0.3 mg/kg, higher of the values after 1 hour and 5 hours, read-out: Recovery rate of 50% reaction threshold value (%)
Protocol: Male SD rats in six weeks age (one group comprised six rats) were used as experimental animals and the paclitaxel-induced peripheral nerve disorder rats were prepared in the same manner as in the above 1.[1](2). The test drug was administered intraperitoneally in a single dose so as to make it 0.3 mg/kg in any of the cases during the period of 18 to 25 days or 20 to 27 days after initiation of administration of paclitaxel.
A von Frey test was conducted in the same manner as in the above 1.[1](4) using the rats mentioned in the above (1) and each 50% reaction threshold value was measured. With regard to the higher 50% reaction threshold value between the 50% reaction threshold values after 1 hour and 5 hours from administration of a test drug, a recovery rate (%) of the 50% reaction threshold value was calculated.
Recovery rate (%) of 50% reaction threshold value={[(50% reaction threshold value after 1 hour or 5 hours from administration of test drug)−(50% reaction threshold value before administration of test drug)]÷[(Normal threshold value)−(50% reaction threshold value before administration of test drug)]}×100

[2] = system: paclitaxel-induced peripheral nerve disorder rats; assay: Repeated intraperitoneal administration, hyperalgesia by paclitaxel (von Frey test); format: in vivo, rat
Protocol: With regard to male SD rats of six weeks age used as the experimental animals, their 50% reaction threshold values to the mechanical stimulus (the measuring method will be mentioned later) and body weights were measured and then the following seven groups each comprising eight rats was organized. • Normal control group • Onset control group • Prophylactic administration group with 0.25 mg/kg/day of a test drug • Prophylactic administration group with 0.50 mg/kg/day of a test drug • Therapeutic administration group with 0.25 mg/kg/day of a test drug • Therapeutic administration group with 0.50 mg/kg/day of a test drug • Therapeutic administration group with 30 mg/kg/day of gabapentin (positive control)
Taxol (registered trademark) injection 30 mg (manufactured by Bristol-Myers Squibb) containing 6 mg/mL of paclitaxel was used. To the rats of each of the above groups except the normal control group was intraperitoneally administered paclitaxel diluted to 2 mg/mL with saline in a dose of 2 mg/kg four times every other day whereupon the paclitaxel-induced peripheral nerve disorder rats were prepared. To the normal control group, an equivalent mixture of ethanol and Cremophor EL (registered trademark; manufactured by Sigma; a solvent for Taxisol (registered trademark) injection) diluted with saline to an extent of 3-fold was administered similarly.
To prophylactic administration groups of a test drug, the compound 4 in a dose of 0.25 mg/kg/day or 0.50 mg/kg/day was repeatedly administered intraperitoneally since immediately after initiation of administration of paclitaxel until 13 days thereafter. Meanwhile, to therapeutic administration groups of a test drug and to a therapeutic administration group of gabapentin, the compound 4 in a dose of 0.25 mg/kg/day or 0.50 mg/kg/day or gabapentin in a dose of 30 mg/kg/day, respectively was repeatedly administered intraperitoneally during the period of from 14 days to 42 days after initiation of the administration of paclitaxel.
The seven groups of rats of the above (1) were placed in a transparent acrylic cage with a wire-meshed floor and habituated for about three minutes and the 50% reaction threshold values to the mechanical stimulus of right hind limb were measured after 3, 7, 14, 21, 28, 35 and 42 days from initiation of the administration of paclitaxel. Incidentally, during the period of administration of a test drug, its values were measured after 24 hours from the last administration of a test drug.
The measurement was conducted using von Frey filaments (manufactured by North Coast Medical Inc.) in accordance with the methods of Chaplan, et al. (Journal of Neuroscience Methods, vol. 53, no. 1, pages 55 to 63, 1994) and Dixon, et al. (Annual Review of Pharmacology and Toxicology, vol. 20, pages 441 to 462, 1980). […] The case where the rat escaped at the instance of removing the filament was also called positive. When the positive reaction was noted, stimulus was conducted similarly using a filament of one rank weaker while, when no reaction was noted, stimulus was conducted similarly using a filament of one rank stronger and the point when the reaction changed from negative to positive or from positive to negative was called the first two reactions. […] A 50% reaction threshold value to the mechanical stimulus was measured using the reaction to the six stimuli in total and then (mean value) ± (standard error) for each group was calculated. […]

## CCCCCCC/C=C/C(=O)OCC [Compound 4, Trans-2-decenoic acid ethyl ester]
[1]
  inhibition in vivo at 0.3 mg/kg: 48.5%
[2]; paclitaxel model, repeated i.p. 0.25 or 0.50 mg/kg/day
  effect of suppressing the hyperalgesia after completion of the repeated administration: still continued
[2]; prophylactic i.p. 0.5 mg/kg/day until 13 days, from 14 days to 28 days after initiation of paclitaxel, male SD rats
  50% reaction threshold values to the mechanical stimulus vs onset control group: significantly high
[2]; therapeutic i.p. 0.25 mg/kg/day (days 14-42), from 21 days to 35 days after paclitaxel
  50% reaction threshold values to the mechanical stimulus vs onset control group: significantly high
[2]; therapeutic i.p. 0.5 mg/kg/day (days 14-42), after 28 days from paclitaxel
  50% reaction threshold values to the mechanical stimulus vs onset control group: significantly high
